According to article PMC5829821, “Mmf1p Couples Amino Acid Metabolism to Mitochondrial DNA Maintenance in Saccharomyces cerevisiae” (mBio, 2018):

Tests used:
Type in all cases: biochemical
Mmf1p(21−147) = target: T1, Mmf1p(21−147) (Saccharomyces cerevisiae, UniProt P40185); test: coupled: 2AA generated by Ilv1p([…]-576) from L-serine, pyruvate at A230; conditions: 50 mM CHES pH 9.5, 0.6 µM Ilv1p, 1.3 µM Mmf1p
T1 construct: gene MMF1
T1 sequence (P40185 21-145): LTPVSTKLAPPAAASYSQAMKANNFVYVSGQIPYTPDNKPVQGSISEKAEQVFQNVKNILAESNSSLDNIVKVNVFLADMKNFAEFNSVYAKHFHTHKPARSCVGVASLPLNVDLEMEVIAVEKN

RidA = target: T2, RidA (Salmonella enterica, UniProt Q7CP78); test: as above; conditions: 50 mM CHES pH 9.5, 0.6 µM Ilv1p, 1.3 µM RidA
T2 construct: purified RidA, preparation described in earlier work
T2 sequence (Q7CP78 1-128): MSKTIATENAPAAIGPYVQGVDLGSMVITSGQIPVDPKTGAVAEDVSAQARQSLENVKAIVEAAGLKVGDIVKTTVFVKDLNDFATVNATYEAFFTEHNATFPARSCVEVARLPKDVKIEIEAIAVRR

Ilv1p(46−576) [1] = target: T3, Ilv1p(46−576) (Saccharomyces cerevisiae, UniProt P00927); test: pyruvate formation at A230, Michaelis-Menten fit; conditions: 50 mM potassium phosphate pH 8
T3 construct: gene ILV1
T3 sequence (P00927 46-576): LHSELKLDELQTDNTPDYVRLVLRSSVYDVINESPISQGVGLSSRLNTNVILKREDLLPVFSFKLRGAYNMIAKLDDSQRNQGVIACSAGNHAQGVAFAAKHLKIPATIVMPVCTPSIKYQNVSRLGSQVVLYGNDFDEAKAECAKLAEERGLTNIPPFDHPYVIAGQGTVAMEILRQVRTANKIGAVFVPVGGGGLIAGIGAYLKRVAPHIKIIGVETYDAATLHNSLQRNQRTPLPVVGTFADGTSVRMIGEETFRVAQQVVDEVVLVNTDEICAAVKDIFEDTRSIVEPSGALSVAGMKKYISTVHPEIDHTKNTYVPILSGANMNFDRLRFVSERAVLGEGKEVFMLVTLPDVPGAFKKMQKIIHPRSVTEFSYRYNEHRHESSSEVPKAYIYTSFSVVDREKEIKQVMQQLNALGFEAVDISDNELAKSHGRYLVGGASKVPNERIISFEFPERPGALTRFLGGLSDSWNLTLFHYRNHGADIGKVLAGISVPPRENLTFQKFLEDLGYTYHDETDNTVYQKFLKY

Ilv1p(46−576) [2] = target: T3, Ilv1p(46−576); conditions: 120 mM L-serine, 50 mM potassium phosphate pH 8; allosteric

With `C=C(N)C(=O)O` [2-aminoacrylate] the “coupled: 2AA generated by Ilv1p(46-576) from L-serine, pyruvate at A230” value (Mmf1p(21−147)) was “released 2AA, which Mmf1p used as a substrate” and the “coupled: 2AA generated by Ilv1p(46-576) from L-serine, pyruvate at A230” value (RidA) was 2AA-hydrolyzing activity of Mmf1p was indistinguishable from that of the well-characterized RidA enzyme.
For `N[C@@H](CO)C(=O)O` [L-serine], the “pyruvate formation at A230, Michaelis-Menten fit” value (Ilv1p(46−576) [1]) was “In vitro, Ilv1p dehydrated serine and released 2AA”.
With `CC[C@H](C)[C@H](N)C(=O)O` [isoleucine] the “inhibition at 3.3 mM” value (Ilv1p(46−576) [2]) was “insensitive to isoleucine concentrations that completely inhibited the wild-type enzyme”.
